The numbers were not newly measured in patent US20090233947A1, “2,3-Substituted fused bicyclic pyrimidin-4(3H)-ones which modulating the function of the vanilloid -1 receptor (VR1)” (priority 2005, published 2009), which cites them from elsewhere.

SMILES strings stand for the structures.

The target of the data set is VR1 (Rattus norvegicus, UniProt O35433). Conditions: Wahl et al., Mol. Pharmacol., 59:9, 2001.
VR1, sequence (O35433 whole entry): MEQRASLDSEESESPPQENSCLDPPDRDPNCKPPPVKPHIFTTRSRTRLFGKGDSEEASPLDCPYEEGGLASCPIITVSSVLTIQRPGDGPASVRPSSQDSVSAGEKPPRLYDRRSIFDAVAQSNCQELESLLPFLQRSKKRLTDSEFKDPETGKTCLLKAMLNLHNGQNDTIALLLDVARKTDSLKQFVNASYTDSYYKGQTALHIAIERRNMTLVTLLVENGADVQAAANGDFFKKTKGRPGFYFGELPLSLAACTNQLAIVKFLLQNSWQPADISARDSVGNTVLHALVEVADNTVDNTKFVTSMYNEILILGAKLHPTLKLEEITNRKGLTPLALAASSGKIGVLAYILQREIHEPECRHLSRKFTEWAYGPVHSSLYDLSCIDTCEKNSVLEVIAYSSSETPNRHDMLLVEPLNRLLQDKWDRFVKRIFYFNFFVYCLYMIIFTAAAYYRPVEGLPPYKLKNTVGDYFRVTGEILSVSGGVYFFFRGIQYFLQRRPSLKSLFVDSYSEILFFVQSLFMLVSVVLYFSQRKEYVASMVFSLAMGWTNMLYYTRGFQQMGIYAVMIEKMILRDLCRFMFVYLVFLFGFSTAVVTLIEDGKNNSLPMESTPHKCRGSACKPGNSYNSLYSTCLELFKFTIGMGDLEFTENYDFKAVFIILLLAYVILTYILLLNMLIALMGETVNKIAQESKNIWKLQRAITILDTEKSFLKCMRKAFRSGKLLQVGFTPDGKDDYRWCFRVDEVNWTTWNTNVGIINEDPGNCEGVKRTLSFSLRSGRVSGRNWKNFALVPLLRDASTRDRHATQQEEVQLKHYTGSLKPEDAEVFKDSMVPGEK

Consider `C=C(C)[C@]12C[C@@H](C)[C@@]34O[C@](Cc5ccccc5)(O[C@@H]1[C@@H]3C=C(COC(=O)Cc1cc(I)c(O)c(OC)c1)C[C@]1(O)C(=O)C(C)=C[C@@H]41)O2` [iodo-resiniferatoxin], for which the “antagonist of VR1” value is reported as “nanomolar antagonist”.
